This is an account of results in patent publication US20210353681A1, “USE OF TNKS INHIBITORS FOR REGENERATION OF CARTILAGE” (SEOUL NATIONAL UNIVERSITY R&DB FOUNDATION, priority 2020, published 2021).

For assay [1], the system named is primary cultured mouse chondrocytes. The assay is described as follows: mRNA and protein levels of cartilage-specific matrix genes in primary cultured mouse chondrocytes. To be noted: for expression of cartilage-specific matrix genes: chondrocytes treated with drugs, mRNA and protein levels (FIG. 1f, g). The format is cell-based. Here is the method:
Primary culture of mouse articular chondrocytes. For the primary culture of mouse articular chondrocytes, cells were isolated from femoral condyles and tibial plateaus of 4-5-day-old ICR mice, as described previously^83. Chondrocytes were maintained in DMEM supplemented with 10% fetal bovine serum (FBS), 100 units/ml penicillin, and 100 μg/ml streptomycin, and cells were treated as indicated in each experiment. Transfection was performed with […] PRO (Biontex) according to the manufacturer's protocol. All siRNAs, including negative control siRNA, were purchased from Bioneer. Recombinant mouse Wnt-3a (315-20) was purchased from PeproTech, and recombinant mouse Dkk-1 (5897-DK) was purchased from R&D Systems.
RT-PCR and qPCR. Total RNAs were extracted using TRI reagent (Molecular Research Center, Inc.). RNAs were reverse transcribed using EasyScript Reverse Transcriptase (Transgen Biotech). Then, cDNA was amplified by PCR or qPCR with the primers listed in Table 2. qPCR was performed with SYBR TOPreal qPCR 2× preMIX (Enzynomics) to determine transcript abundance. Transcript quantity was calculated using the ΔΔCt method, and Hprt or HPRT1 levels were used as housekeeping controls. The log 2 (fold change) value of the cartilage stromal gene of mouse articular chondrocytes treated with siRNA was clustered using a hierarchical clustering algorithm (mean association and central correlation distance) in 1.0.4 R package. PCA was performed using the same R package.
Whole-cell lysate preparation. Whole-cell lysates were prepared in RIPA buffer (150 mM NaCl, 1% NP-40, 50 mM Tris, pH 8.0, 0.5% sodium deoxycholate, 0.1% SDS) supplemented with a protease inhibitor cocktail (Sigma-Aldrich).

Assay [2] deals with mouse limb-bud mesenchymal cells. The assay is described as follows: Mouse limb-bud micromass culture, Alcian Blue staining. The format is cell-based. Particulars: micromass cultures, treated 3 days. Here is the method: Mouse limb-bud micromass culture. For the micromass culture of mesenchymal cells, limb-bud cells were isolated from E11.5 ICR mouse embryos. 2.0×10^7 cells/ml were suspended in DMEM supplemented with 10% FBS, 100 units/ml penicillin, and 100 μg/ml streptomycin, and 15-μ1 drops were spotted on culture dishes. After 24 h, cells were treated as indicated for 3 days and subjected to Alcian Blue staining.

Another assay deals with mouse chondrocytes. Put plainly: RNA sequencing and gene set enrichment analysis of treated chondrocytes. It is filed as cell-based. To be noted: drugs 10 μM for 108 h vs vehicle; siRNAs vs control siRNA. The method, then: RNA sequencing (RNA-seq). Primary cultured mouse articular chondrocytes were treated with DMSO or 10 μM of XAV939 or IWR-1 for 108 h or transfected with control siRNA or Tnks and Tnks2 siRNAs. Three biological replicates were used for each group. One microgram of high-quality RNA samples (RIN>7.0) were used to construct RNA-seq libraries with the TruSeq Stranded mRNA Library Prep kit (Illumina). Libraries were validated with an Agilent 2100 Bioanalyzer. RNA-seq was performed on an Illumina HiSeq 2500 sequencer at Macrogen. The sequence reads were trimmed with Trimmomatic^86 and mapped against the mouse reference genome (mm10) using TopHat. Read counts per gene were calculated using HTSeq^88. Differential expression analysis was conducted using the DESeq2 R package^89. DEGs were selected using a |fold change| cutoff of >3 and a FDR q cutoff of <1×10^−5. DEGs at least one condition were clustered with hierarchical clustering algorithm (ward.D linkage with euclidean distance) using gplots R package. GO analysis was conducted using Enrichr^90. Heatmaps of DEGs that are in the cartilage-signature gene set or the osteoarthritis-signature gene sets were drawn with Gitools.
GSEA analysis. Genes were ranked according to the shrunken log2 fold change calculated via DESeq2. […]

Assay [3] concerns articular cartilage of DMM-operated mouse. Put plainly: Experimental OA in mice (DMM surgery), intra-articular hydrogel drug delivery. To be noted: for degeneration of cartilage matrix caused by DMM (Safranin O staining, OARSI grade): IA administration in hydrogel, 10 nmol drug. It is filed as in vivo. Here is the method: Preparation of hydrogels and in vivo confirmation of controlled release of embedded molecules. 6-O-Palmitoyl-l-ascorbic acid (76183) was purchased from Sigma-Aldrich. […] PBS-suspended hydrogel (10 μl, PBS:hydrogel=1:1) containing 50 pmol DiD was administered intra-articularly, and at 1-9 days post-injection, light-emitting diode (LED) and fluorescence images of knee joints were obtained. LuminoGraph II (Atto) was used to acquire the images.
Experimental OA in mice. Eight-week-old male ICR mice were used for experimental OA. Experimental OA was induced by DMM (Destabilization of the medial meniscus) surgery on the right hindlimb, and sham surgery was conducted on the left hindlimb as a control (Glasson, S. S., Blanchet, T. J. & Morris, E. A. The surgical destabilization of the medial meniscus (DMM) model of osteoarthritis in the 129/SvEv mouse. Osteoarthritis Cartilage 15, 1061-1069, doi:10.1016/j.joca.2007.03.006 (2007)). 10 μl of PBS-suspended hydrogel (PBS:hydrogel=1:1) containing vehicle or 10 nmol drugs was administered intra-articularly.
Histology and immunohistochemistry. Mouse and rat knee joint samples and human cartilage samples were fixed with 4% paraformaldehyde overnight at 4° C. All samples were […] for 2-4 weeks 0.5M EDTA, pH 7.4 at 4° C. and embedded in paraffin. Mouse and rat paraffin blocks were sectioned at a thickness of 6 μm, and human paraffin blocks were sectioned to a thickness of 5 μm. […] Cartilage regeneration in osteochondral defect model was scored according to the International Cartilage Repair Society (ICRS) scoring system (Haikarainen, T., Krauss, S. & Lehtio, L. Tankyrases: structure, function and therapeutic implications in cancer. Curr Pharm Des 20, 6472-6488 (2014) and Mainil-Varlet, P. et al. Histological assessment of cartilage repair: a report by the Histology Endpoint Committee of the International Cartilage Repair Society (ICRS). J Bone Joint Surg Am 85-A Suppl 2, 45-57 (2003)) by three blinded observers.

Consider `C[C@]1(c2nc3c(C(N)=O)cccc3[nH]2)CCCN1` [ABT-888], for which the “expression of cartilage-specific matrix genes” value in assay [1] is given as “failed to increase their expressions”.
On to `Cc1cc(/C=C2\SC(=O)N(c3ccccc3)C2=O)c(C)n1-c1cccnc1` [iCRT 1429], for which, in assay [1] (β-catenin inhibition in chondrocytes (FIG. 2e, f, g), iCRT 14 for 24 h), the “expression of cartilage matrisome” value is “did not significantly affect the expression of cartilage matrisome”.
For the compound `O=C(Nc1cccc2cccnc12)c1ccc(N2C(=O)C3C4C=CC(C4)C3C2=O)cc1` (centres unmarked) [IWR-1, 4-(1,3,3a,4,7,7a-Hexahydro-1,3-dioxo-4,7-methano-2H-isoindol-2-yl)-N-8-quinolinyl-Benzamide], the chondrogenic nodule formation result in assay [2] is given as “effectively induced chondrogenic nodule formation”. In the assay on mouse chondrocytes, the “enrichment of cartilage-signature genes in whole transcriptome (GSEA)” value is listed as “positively enriched”. Besides, in assay [1], the “expression of cartilage-specific matrix genes” value is “increased the expression of cartilage-specific matrix genes”. Further, in assay [3], the “degeneration of cartilage matrix caused by DMM (Safranin O staining, OARSI grade)” value is “significant reduction in the degeneration of cartilage matrix”.
On to `O=c1[nH]c(-c2ccc(C(F)(F)F)cc2)nc2c1CSCC2` [XAV939, 3,5,7,8-Tetrahydro-2-[4-(trifluoromethyl)phenyl]-4H-thiopyrano[4,3-d]pyrimidin-4-one], for which the chondrogenic nodule formation result in assay [2] was “effectively induced chondrogenic nodule formation”. Moreover, the “enrichment of cartilage-signature genes in whole transcriptome (GSEA)” value in the assay with mouse chondrocytes is recorded as “positively enriched”. The “expression of cartilage-specific matrix genes” value in assay [1] is given as “increased the expression of cartilage-specific matrix genes”. In assay [3], the “degeneration of cartilage matrix caused by DMM (Safranin O staining, OARSI grade)” value was “significant reduction in the degeneration of cartilage matrix”. In assay [3] (treatment started 6 weeks after DMM surgery, for additional 6 weeks, compared with vehicle-treated mice), the “cartilage destruction in late-stage OA (Safranin O staining, OARSI grade)” value is recorded as “reduction in the cartilage destruction”.
